The nature of experiment [1]: Inhibition of jack bean alpha-mannosidase assessed as p-nitrophenol release using p-nitrophenyl-alpha-D-mannopyranoside as substrate after 15 to 60 mins by spectrophotometry. Set-up: species or system Canavalia ensiformis.
Experiment [2] has as its target T1, Pancreatic alpha-amylase (Sus scrofa) (UniProt P00690).
T1 sequence (whole entry): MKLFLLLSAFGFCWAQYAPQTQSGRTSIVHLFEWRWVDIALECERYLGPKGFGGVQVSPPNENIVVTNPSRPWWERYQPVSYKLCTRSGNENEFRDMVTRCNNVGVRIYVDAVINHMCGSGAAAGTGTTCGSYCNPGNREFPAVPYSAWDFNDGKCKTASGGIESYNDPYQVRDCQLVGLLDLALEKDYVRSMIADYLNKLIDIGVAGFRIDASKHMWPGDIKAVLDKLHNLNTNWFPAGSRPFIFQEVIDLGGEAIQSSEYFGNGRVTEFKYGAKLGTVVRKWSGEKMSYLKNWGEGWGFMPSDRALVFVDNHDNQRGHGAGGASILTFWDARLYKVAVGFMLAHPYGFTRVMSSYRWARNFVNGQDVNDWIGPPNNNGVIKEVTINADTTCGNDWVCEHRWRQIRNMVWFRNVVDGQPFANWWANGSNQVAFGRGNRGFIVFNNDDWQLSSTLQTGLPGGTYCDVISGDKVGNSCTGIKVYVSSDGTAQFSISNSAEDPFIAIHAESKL
Put plainly: Inhibition of pig pancreatic alpha-amylase assessed as maltose release from starch at 5 mg/cm'3 after 10 mins by DNSA assay.

Experiment [3] in a line: Inhibition of alpha-glucosidase assessed as p-nitrophenol release using p-nitrophenyl-alpha-D-glucopyranoside as substrate preincubated for 1 hr before substrate addition at pH 6.8 measured after 10 mins by spectrophotometry.
The nature of experiment [4]: Inhibition of jack bean alpha-mannosidase assessed as p-nitrophenol release using p-nitrophenyl-alpha-D-mannopyranoside as substrate preincubated for 1 hr before substrate addition at pH 4.5 measured after 10 mins by spectrophotometry. Set-up: species or system Canavalia ensiformis.
Experiment [5] in a line: Inhibition of alpha-galactosidase assessed as p-nitrophenol release using p-nitrophenyl-alpha-D-galactopyranoside as substrate preincubated for 1 hr before substrate addition measured after 10 mins by spectrophotometry.
Experiment [6] in a line: Inhibition of alpha-mannosidase.

5 molecules from ChEMBL document CHEMBL1914357, “Synthesis of anomeric 1,5-anhydrosugars as conformationally locked selective α-mannosidase inhibitors” (Bioorg Med Chem, 2011) can be followed below.

The structures appear in SMILES notation. Activity calls are given as the source filed them. No cut-off for these calls is given here.

For the molecule `O[C@H]1[C@H]2[C@H](O)CCCN2C[C@H]1O` [TRIDOLGOSIR], the IC50 in experiment [1] was determined as 0.1 µM.

In the case of `NC[C@H]1O[C@@H]2OCC[C@@]1(O)[C@H]2O`, the inhibition result in experiment [2], in experiment [3] and in experiment [5] was “inactive” throughout. Besides, the IC50 in experiment [4] worked out at 98.3 µM.

On to `OC[C@@H]1CC2NCC1(O)C(O)C2O` (stereo partly specified), for which the IC50 in experiment [6] is 9600 µM.

Turning to `OC[C@H]1O[C@@H]2OCC[C@@]1(O)[C@H]2O`, the inhibition result in experiment [2], in experiment [3] and in experiment [5] was “inactive” in each case. Moreover, the IC50 in experiment [4] was found to be 133 µM.

As for `OC[C@@H]1CC2C(O)C(O)C1(O)CN2Cc1ccccc1` (stereo partly specified), in experiment [6], the midpoint of inhibition, the IC50, lay at 20000 µM.
